Data on seven compounds can be found in patent US20120035251A1, “THIOPHENE INHIBITORS OF IKK-B SERINE-THREONINE PROTEIN KINASE” (CHROMA THERAPEUTICS LD., priority 2009, published 2012).

One data set deals with T1, IKKβ (Homo sapiens, UniProt O14920).
T1 construct: purchased Invitrogen (Paisley, UK)
T1 sequence (O14920 1-756): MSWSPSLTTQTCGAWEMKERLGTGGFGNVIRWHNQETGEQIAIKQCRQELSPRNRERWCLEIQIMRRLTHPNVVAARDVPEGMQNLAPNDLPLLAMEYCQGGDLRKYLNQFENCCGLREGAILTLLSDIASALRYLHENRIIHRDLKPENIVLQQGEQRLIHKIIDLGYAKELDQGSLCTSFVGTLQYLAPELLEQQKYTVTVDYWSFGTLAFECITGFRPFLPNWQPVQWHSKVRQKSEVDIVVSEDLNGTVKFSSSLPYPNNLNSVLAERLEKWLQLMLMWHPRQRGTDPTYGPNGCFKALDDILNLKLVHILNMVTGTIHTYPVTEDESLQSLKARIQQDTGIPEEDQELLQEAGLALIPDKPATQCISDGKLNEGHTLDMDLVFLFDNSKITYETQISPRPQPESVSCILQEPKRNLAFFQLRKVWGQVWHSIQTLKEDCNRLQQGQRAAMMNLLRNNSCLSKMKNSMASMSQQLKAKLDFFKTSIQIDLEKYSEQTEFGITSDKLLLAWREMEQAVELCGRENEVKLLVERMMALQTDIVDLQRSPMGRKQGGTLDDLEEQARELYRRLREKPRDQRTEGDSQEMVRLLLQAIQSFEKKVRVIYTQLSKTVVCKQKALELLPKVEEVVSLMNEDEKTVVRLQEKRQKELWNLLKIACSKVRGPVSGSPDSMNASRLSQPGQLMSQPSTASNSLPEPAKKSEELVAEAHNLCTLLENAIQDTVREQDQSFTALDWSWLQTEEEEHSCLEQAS
The experiment in a line: IKKβ enzyme assay (Z'-LYTE, Invitrogen). It is filed as biochemical. As to the method:
The ability of compounds to inhibit IKKβ kinase activity was measured in an assay performed by Invitrogen (Paisley, UK). The Z′-LYTE™ biochemical assay employs a fluorescence-based, coupled-enzyme format and is based on the differential sensitivity of phosphorylated and non-phosphorylated peptides to proteolytic cleavage. The peptide substrate is labelled with two fluorophores—one at each end—that make up a FRET pair. In the primary reaction, the kinase transfers the gamma-phosphate of ATP to a single serine or threonine residue in a synthetic FRET-peptide. In the secondary reaction, a site-specific protease recognizes and cleaves non-phosphorylated FRET-peptides. Phosphorylation of FRET-peptides suppresses cleavage by the Development Reagent. Cleavage disrupts FRET between the donor (i.e., coumarin) and acceptor (i.e. fluorescein) fluorophores on the FRET-peptide, whereas uncleaved, phosphorylated FRET-peptides maintain FRET. A […] method, which calculates the ratio (the Emission Ratio) of donor emission to acceptor emission after excitation of the donor fluorophore at 400 nm, is used to quantitate reaction progress.
The final 10 μL Kinase Reaction consists of 0.9-8.0 ng IκBKB (IKKβ), 2 μM Ser/Thr 05 Peptide and ATP in 50 mM HEPES pH 7.5, 0.01% BRIJ-35, 10 mM MgCl2, 1 mM EGTA. The assay is performed at an ATP concentration at, or close to the Km. After the 60 minute Kinase Reaction incubation at room temperature, 5 μL of a 1:128 dilution of Development Reagent is added. The assay plate is incubated for a further 60 minutes at room temperature and read on a fluorescence plate reader.
Duplicate data points are generated from a 1/3 log dilution series of a stock solution of test compound in DMSO. Nine dilutions steps are made from a top concentration of 10 μM, and a ‘no compound’ blank is included. Data is collected and analysed using XLfit software from IDBS. The dose response curve is curve fitted to model number 205 (sigmoidal dose-response model). From the curve generated, the concentration giving 50% inhibition is determined and reported.

For data set [1], the system named is TNF-α production in human whole blood. The experiment in a line: LPS-stimulation of human whole blood, TNF-α by ELISA. It is filed as cell-based. To be noted: for IC50: LPS-stimulated human whole blood, TNF-α, read-out: IC50 (nM) Human Whole Blood. As to the method: Whole blood was taken by venous puncture using heparinised vacutainers (Becton Dickinson) and diluted in an equal volume of RPMI1640 tissue culture media (Sigma). 100 μl was plated in V-bottomed 96 well tissue culture treated plates. 2 hours after the addition of the inhibitor in 100 μlof RPMI1640 media, the blood was stimulated with LPS (E coli strain 005:B5, Sigma) at a final concentration of 100 ng/ml and incubated at 37° C. in 5% CO2 for 6 hours. TNF-α levels were measured from cell-free supernatants by sandwich ELISA (R&D Systems #QTA00B).
In general terms: In an ELISA, binding on a coated surface is turned into a signal by an enzyme label.

Data set [2] relates to TNF-α production in THP-1 cells. As to the kind of experiment: LPS-stimulation of THP-1 cells, TNF-α by ELISA. It is filed as cell-based. To be noted: Homo sapiens; for pIC50: THP-1, read-out: Inhibition of TNF-α production in THP-1 cells (IC50); for IC50: LPS-stimulated THP-1 cells, TNF-α, read-out: IC50 (nM) THP-1. As to the method: THP-1 cells were plated in 100 μl at a density of 4×10^4 cells/well in V-bottomed 96 well tissue culture treated plates and incubated at 37° C. in 5% CO2 for 16 hours. 2 hours after the addition of the inhibitor in 100 μl of tissue culture media, the cells were stimulated with LPS (E coli strain 005:B5, Sigma) at a final concentration of 1 μg/ml and incubated at 37° C. in 5% CO2 for 6 hrs. TNF-α levels were measured from cell-free supernatants by sandwich ELISA (R&D Systems #QTA00B).

Data set [3] has as its system U937 (monocyte cell line) cells. As to the kind of experiment: Intact cell accumulation assay, U937 cells. The note with it: 6 μmol/L compound. It is filed as in vitro ADME. As for the experimental part: (§1) Cells (4×10^4/mL) were incubated at 37° C. in culture medium containing 6 μmol/L compound in a 5% (v/v) CO2-humidified atmosphere. Incubations were terminated after 6 h by centrifugation of 25 mL aliquots of the cell suspension at 1500 rpm for 5 min at 4° C. 0.2 mL samples of the culture media supernatants were added to four volumes of acetonitrile. After decanting the supernatant, the residual cell pellet (10^6 cells) was extracted into 1 mL of acetonitrile. Samples were then analyzed for the ester and acid metabolite at room temperature by LC/MS/MS (Sciex API3000). Chromatography was based on a MeCN (75×21 mm) column with a 5% to 95% (v/v) acetonitrile/water, 0.1% (v/v) formic acid mobile phase. For the zero time samples, the cell suspension was chilled and centrifuged as soon as the ester had been added and then extracted into acetonitrile as described. Levels in cells are expressed as ng/mL.

Data set [4] deals with HUT78 (non-monocyte cell line) cells. As to the kind of experiment: Intact cell accumulation assay, HUT78 cells. It is filed as in vitro ADME. To be noted: 6 μmol/L compound. As for the experimental part:
as §1

[5] abbreviates: compound as drawn (Ester for the Example 1 row), read-out: Inhibition of IKKβ (IC50 nM).
The mark [6] stands for this setting: read-out: IC50 (nM) IKKβ Enzyme.

pIC50: −log10 of the molar value. Like-named read-outs stand apart in the source and are kept apart here.

Consider `NC(=O)Nc1sc(Cc2ccccc2)cc1C(N)=O` [reference compound], for which the concentration for half-maximal inhibition (IC50) (in general, the concentration that gives 50% inhibition) on IKKβ (setting [5]) amounted to 486 nM. For the same compound, the “Ratio of whole blood IC50 to enzyme IC50” value in data set [1] is over 20. Also, the inhibition at 10 µM in data set [1] (Homo sapiens, @10 μM, read-out: Inhibition of TNF-α production in human whole blood, % at single concentration) was determined as 28%. Besides, the negative logarithm of the IC50 (pIC50) – broadly, the negative decadic logarithm of the IC50, by convention in mol/L – in data set [2] is 5.57.

For the compound `CC(C)C[C@H](NCc1ccc(C#Cc2cc(C(N)=O)c(NC(N)=O)s2)cc1)C(=O)OC1CCCC1` [Example 4, Cyclopentyl N-(4-{[4-carbamoyl-5-(carbamoylamino)-2-thienyl]ethynyl}benzyl)-L-leucinate], the IC50 was over 5000 nM on IKKβ (setting [6]), 500 to 5000 nM in data set [1] and 500 to 5000 nM in data set [2].

Regarding `CC(C)C[C@H](NCc1ccc(Cc2cc(C(N)=O)c(NC(N)=O)s2)cc1)C(=O)OC1CCCC1` [Example 1, Cyclopentyl N-(4-{[4-carbamoyl-5-(carbamoylamino)-2-thienyl]methyl}benzyl)-L-leucinate], the IC50 at IKKβ (Acid: the acid of the drawn ester (Example 1), read-out: Inhibition of IKKβ (IC50 nM), Acid) is 369 nM; at IKKβ (setting [5]), 10000 nM; on IKKβ (setting [6]) it was over 5000 nM; in data set [1], under 500 nM; in data set [2] it was 500 to 5000 nM. Also, in data set [1], the “Ratio of whole blood IC50 to enzyme IC50” value was 0.05. Besides, the pIC50 was 6.30 in data set [1] (Homo sapiens, read-out: Inhibition of TNF-α production in human whole blood (IC50)) and 5.71 in data set [2]. Also, the “Concentration in U937 cell line” value came out at 420 ng/10^6 cells in data set [3] (0 hrs incubation) and 217 ng/10^6 cells in data set [3] (6 hrs incubation). The “Concentration in HUT78 cell line” value in data set [4] (0 hrs incubation) turned out to be 466 ng/10^6 cells; in data set [4] (6 hrs incubation), 465 ng/10^6 cells.

With `CC(C)C[C@H](NCc1ccc(CCc2cc(C(N)=O)c(NC(N)=O)s2)cc1)C(=O)O` [Example 6, N-(4-{2-[4-Carbamoyl-5-(carbamoylamino)-2-thienyl]ethyl}benzyl)-L-leucine], the IC50 at IKKβ (setting [6]) lay within 500 to 5000 nM.

As to `CC(C)C[C@H](NCc1ccc(Cc2cc(C(N)=O)c(NC(N)=O)s2)cc1)C(=O)O` [Example 5, N-(4-{[4-Carbamoyl-5-(carbamoylamino)-2-thienyl]methyl}benzyl)-L-leucine], the concentration for half-maximal inhibition (IC50) at IKKβ (setting [6]) was under 500 nM. Further, the “Concentration in U937 cell line” value in data set [3] (0 hrs incubation) worked out at 68 ng/10^6 cells; in data set [3] (6 hrs incubation) it was 286 ng/10^6 cells. Besides, the “Concentration in HUT78 cell line” value in data set [4] (0 hrs incubation) is 0 ng/10^6 cells.

For the compound `CC(C)C[C@H](NCc1ccc(Cc2cc(C(N)=O)c(NC(N)=O)s2)cc1)C(=O)OC(C)(C)C` [Example 2, tert-Butyl N-(4-{[4-carbamoyl-5-(carbamoylamino)-2-thienyl]methyl}benzyl)-L-leucinate], the IC50 at IKKβ (setting [6]) is 500 to 5000 nM; in data set [1], over 5000 nM; in data set [2] it was over 5000 nM.

As for `CC(C)C[C@H](NCc1ccc(CCc2cc(C(N)=O)c(NC(N)=O)s2)cc1)C(=O)OC1CCCC1` [Example 3, Cyclopentyl N-(4-{2-[4-carbamoyl-5-(carbamoylamino)-2-thienyl]ethyl}benzyl)-L-leucinate], the results for the half-maximal inhibitory concentration (IC50) (at IKKβ (setting [6]); in data set [1]; in data set [2]) were over 5000 nM, 500 to 5000 nM and over 5000 nM, respectively.
